Tests used:
Assay type in all cases: biochemical
m-NTPDase2 = molecular target: T1, m-NTPDase2 (Mus musculus, UniProt O55026); test: m-NTPDase2 inhibition, malachite green assay; conditions: for inhibition at 100 µM: compound 100 µM; for IC50: mean ± SEM of three independent experiments
T1 construct: made in house; host or cells: COS-7 cells, transient transfection; crude protein extract after sonication
T1 sequence (O55026 1-495): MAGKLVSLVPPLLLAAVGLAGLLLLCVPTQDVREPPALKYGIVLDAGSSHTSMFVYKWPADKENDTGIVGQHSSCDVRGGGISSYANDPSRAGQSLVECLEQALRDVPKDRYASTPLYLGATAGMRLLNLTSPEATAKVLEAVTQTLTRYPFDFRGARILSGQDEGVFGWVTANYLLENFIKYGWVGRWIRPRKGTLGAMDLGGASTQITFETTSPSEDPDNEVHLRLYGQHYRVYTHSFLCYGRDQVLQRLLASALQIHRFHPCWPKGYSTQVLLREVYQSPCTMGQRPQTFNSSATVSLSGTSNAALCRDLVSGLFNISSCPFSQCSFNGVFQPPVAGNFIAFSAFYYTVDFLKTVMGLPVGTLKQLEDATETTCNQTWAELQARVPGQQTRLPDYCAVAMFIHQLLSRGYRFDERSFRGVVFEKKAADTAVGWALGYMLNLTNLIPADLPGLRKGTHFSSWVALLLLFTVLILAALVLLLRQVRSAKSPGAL
Procedure: (§1) COS-7 cells were transfected with plasmids expressing human or mouse NTPDases1, -2, -3, and -8 as previously described ([Levesque et al., 2007]; [Lecka et al., 2014]) Briefly, the confluent cells were transferred to Dulbecco’s Modified Eagle’s Medium containing no fetal bovine serum. Then, these cells were incubated with plasmid DNA (6 µg) and Lipofectamine reagent (24 µl) at 37°C. After 5 h, transfection was terminated with the addition of an equal volume of DMEM/F-12 (supplemented with 20% FBS) and cells were collected by harvesting after 40–72 h.
(§2) To prepare protein extracts, transfected COS-7 cells were washed three times with tris-saline buffer while temperature was maintained at 4°C. Then cells were scraped and resuspended in harvesting buffer containing 95 mM NaCl, 45 mM tris and 0.1 mM phenylmethylsulfonyl fluoride (pH 7.5). Cells were again washed twice by centrifugation for 5 min at 300 × g at 4°C and then resuspended in harvesting buffer (supplemented with 10 μg ml aprotinin). Following sonication, cellular debris was isolated by 10 min centrifugation at 300 g at 4°C. Subsequently, supernatant was removed very carefully and protein concentration was determined by using Bradford microplate assay while using the bovine serum albumin as a standard ([Bradford, 1976]).
(§3) The inhibitory effects of synthesized compounds on h-NTPDase1, -2, -3, and -8 were determined as described previously, although with slight modifications ([Martín-Satué et al., 2009]). Assay was conducted in a reaction medium containing 50 mM tris-HCl and 5 mM CaCl2 (pH 7.4). All the test compounds were dissolved in dimethyl sulfoxide (DMSO, 10%) and initially screened at a concentration of 100 µM. A reaction mixture containing 55 µl of assay buffer, 10 µl of test compound solution and 10 µl of h-NTPDase1 (58 ng/well) or h-NTPDase2 (79 ng/well) or h-NTPDase3 (163 ng/well) or h-NTPDase8 (66 ng/well) was incubated at 37°C for 10 min. Following the incubation, a 10 µl solution of adenosine triphosphate (ATP, 100 µm) was added as substrate and reaction mixture was again incubated for 15 min at 37°C. The reaction was stopped by adding malachite green reagent (15 µl) and placed at room temperature for 4 to 6 min. Finally, absorbance was measured at 630 nm by using Omega FLUOstar microplate reader (BMG Labtech, Ortenberg, Germany) and % inhibitions were calculated. For compounds showing more than 50% inhibition of any isozyme, dose response curves were generated and their IC50 values were determined. Three separate enzyme inhibition assays were carried out in triplicate and dose-response curve were generated by using PRISM 5.0 (GraphPad, San Diego, United States).
Same procedure was adopted to determine the inhibitory effects of compounds on mouse NTPDases (m-NTPDases). However, the amount of protein used was as follows: m-NTPDase1 (82 ng/well), m-NTPDase2 (57 ng/well), m-NTPDase3 (110 ng/well) and m-NTPDase8 (79 ng/well)

h-NTPDase1 = molecular target: T2, h-NTPDase1 (Homo sapiens, UniProt P49961); test: h-NTPDase1 inhibition, malachite green assay; conditions: for inhibition at 100 µM / Ki / IC50: human NTPDase1; for inhibition at 100 µM: compound 100 µM; for IC50: ATP 100 µM substrate, mean ± SEM of three independent experiments
T2 construct: made in house; host or cells: COS-7 cells, transient transfection; crude protein extract after sonication
T2 sequence (P49961 1-510): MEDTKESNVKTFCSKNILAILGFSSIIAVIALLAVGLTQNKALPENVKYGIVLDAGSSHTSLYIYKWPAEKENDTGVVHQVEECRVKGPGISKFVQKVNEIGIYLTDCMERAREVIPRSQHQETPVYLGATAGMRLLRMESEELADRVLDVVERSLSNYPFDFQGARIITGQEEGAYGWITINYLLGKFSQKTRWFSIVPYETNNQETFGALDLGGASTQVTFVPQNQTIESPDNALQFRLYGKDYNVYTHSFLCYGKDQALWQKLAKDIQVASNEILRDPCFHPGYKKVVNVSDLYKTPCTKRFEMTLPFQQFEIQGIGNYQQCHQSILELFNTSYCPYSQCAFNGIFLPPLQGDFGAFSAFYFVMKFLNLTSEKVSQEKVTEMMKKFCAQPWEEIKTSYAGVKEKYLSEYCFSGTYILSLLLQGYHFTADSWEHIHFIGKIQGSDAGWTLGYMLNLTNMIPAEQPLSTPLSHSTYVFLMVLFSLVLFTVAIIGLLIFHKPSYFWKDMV
Procedure: as §1, §2, §3

h-NTPDase8 = molecular target: T3, h-NTPDase8 (Homo sapiens, UniProt Q5MY95); test: h-NTPDase8 inhibition, malachite green assay; conditions: for inhibition at 100 µM: compound 100 µM; for IC50: ATP 100 µM substrate, mean ± SEM of three independent experiments
T3 construct: made in house; host or cells: COS-7 cells, transient transfection; crude protein extract after sonication
T3 sequence (Q5MY95 1-495): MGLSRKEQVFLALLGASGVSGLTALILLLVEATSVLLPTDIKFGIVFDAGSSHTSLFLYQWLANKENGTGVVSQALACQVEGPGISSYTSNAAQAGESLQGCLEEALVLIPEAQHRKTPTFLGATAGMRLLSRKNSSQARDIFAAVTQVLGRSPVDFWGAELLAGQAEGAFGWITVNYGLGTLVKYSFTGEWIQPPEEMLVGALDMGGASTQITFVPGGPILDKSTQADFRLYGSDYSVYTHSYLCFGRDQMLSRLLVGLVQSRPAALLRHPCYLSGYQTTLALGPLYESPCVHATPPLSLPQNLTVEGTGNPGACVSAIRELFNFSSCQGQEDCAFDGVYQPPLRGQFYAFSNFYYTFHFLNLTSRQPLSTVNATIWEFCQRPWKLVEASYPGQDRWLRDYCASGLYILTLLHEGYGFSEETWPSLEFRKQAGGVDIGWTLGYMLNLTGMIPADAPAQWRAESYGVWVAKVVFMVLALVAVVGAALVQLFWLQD
Procedure: as §1, §2, §3

SMILES: O=C1Nc2ccccc2/C1=N/NC(=S)Nc1ccccc1 [8a, (Z)-2-(2-oxoindolin-3-ylidene)-N-phenylhydrazine-1-carbothioamide]
- inhibition at 100 µM (m-NTPDase2): 42%
- inhibition at 100 µM (h-NTPDase1): 45%
- inhibition at 100 µM (h-NTPDase8): 24%

SMILES: Cc1ccc(NC(=S)N/N=C2\C(=O)Nc3ccccc32)cc1 [8h, (Z)-2-(2-oxoindolin-3-ylidene)-N-(p-tolyl)hydrazine-1-carbothioamide]
- inhibition at 100 µM (m-NTPDase2): 31%
- inhibition at 100 µM (h-NTPDase1): 49%
- inhibition at 100 µM (h-NTPDase8): 22%

SMILES: COc1ccc(NC(=S)NNC2=c3ccccc3=NC2=O)cc1 [8k, (Z)-N-(4-methoxyphenyl)-2-(2-oxoindolin-3-ylidene)hydrazine-1-carbothioamide]
- inhibition at 100 µM (m-NTPDase2): 29%
- inhibition at 100 µM (h-NTPDase1): 44%
- inhibition at 100 µM (h-NTPDase8): 46%

SMILES: COc1ccc(OC)c(NC(=S)N/N=C2\C(=O)Nc3ccccc32)c1 [8j, (Z)-N-(2,5-dimethoxyphenyl)-2-(2-oxoindolin-3-ylidene)hydrazine-1-carbothioamide]
- inhibition at 100 µM (m-NTPDase2): 27%
- Ki (h-NTPDase1): 0.02 µM
- IC50 (h-NTPDase1): 0.15 ± 0.01 µM
- inhibition at 100 µM (h-NTPDase8): 19%

SMILES: O=C1Nc2ccccc2/C1=N/NC(=S)Nc1cccc(Cl)c1 [8g, (Z)-N-(3-chlorophenyl)-2-(2-oxoindolin-3-ylidene)hydrazine-1-carbothioamide]
- inhibition at 100 µM (m-NTPDase2): 36%
- inhibition at 100 µM (h-NTPDase1): 28%
- inhibition at 100 µM (h-NTPDase8): 7%

SMILES: COc1cccc(NC(=S)N/N=C2\C(=O)Nc3ccccc32)c1 [8e, (Z)-N-(3-methoxyphenyl)-2-(2-oxoindolin-3-ylidene)hydrazine-1-carbothioamide]
- inhibition at 100 µM (m-NTPDase2): 29%
- Mode of inhibition of h-NTPDase1 (h-NTPDase1; Lineweaver-Burk plot): non-competitive
- Ki (h-NTPDase1): 0.15 µM
- IC50 (h-NTPDase1): 0.15 ± 0.009 µM

SMILES: CCNC(=S)N/N=C1\C(=O)Nc2ccccc21 [8m, (Z)-N-ethyl-2-(2-oxoindolin-3-ylidene)hydrazine-1-carbothioamide]
- Ki (m-NTPDase2): 0.41 µM
- IC50 (m-NTPDase2): 1.5 ± 0.11 µM
- Ki (h-NTPDase1): 0.38 µM
- IC50 (h-NTPDase1): 2.6 ± 0.02 µM
- inhibition at 100 µM (h-NTPDase8): 38%

SMILES: Cc1ccc(C(=O)Nc2ccc(S(=O)(=O)O)c3cc(S(=O)(=O)O)cc(S(=O)(=O)O)c23)cc1NC(=O)c1cccc(NC(=O)Nc2cccc(C(=O)Nc3cc(C(=O)Nc4ccc(S(=O)(=O)O)c5cc(S(=O)(=O)O)cc(S(=O)(=O)O)c45)ccc3C)c2)c1 [Suramin, reference compound]
- Ki (m-NTPDase2): 5.67 µM
- IC50 (m-NTPDase2): 21 ± 2 µM
- Ki (h-NTPDase1): 2.33 µM
- IC50 (h-NTPDase1): 16.1 ± 1.02 µM
- IC50 (h-NTPDase8): > 100 µM

SMILES: O=C1Nc2ccccc2/C1=N/NC(=S)Nc1ccc(F)cc1 [8d, (Z)-N-(4-fluorophenyl)-2-(2-oxoindolin-3-ylidene)hydrazine-1-carbothioamide]
- inhibition at 100 µM (m-NTPDase2): 27%
- inhibition at 100 µM (h-NTPDase1): 49.1%
- inhibition at 100 µM (h-NTPDase8): 33%

SMILES: O=C1Nc2ccccc2/C1=N/NC(=S)Nc1c(F)cccc1F [8l, (Z)-N-(2,6-difluorophenyl)-2-(2-oxoindolin-3-ylidene)hydrazine-1-carbothioamide]
- Ki (m-NTPDase2): 0.05 µM
- IC50 (m-NTPDase2): 0.2 ± 0.01 µM
- Ki (h-NTPDase1): 0.04 µM
- IC50 (h-NTPDase1): 0.3 ± 0.03 µM
- inhibition at 100 µM (h-NTPDase8): < 50%

SMILES: O=C1Nc2ccccc2/C1=N/NC(=S)Nc1ccc([N+](=O)[O-])cc1 [8b, (Z)-N-(4-nitrophenyl)-2-(2-oxoindolin-3-ylidene)hydrazine-1-carbothioamide]
- inhibition at 100 µM (m-NTPDase2): 31%
- Ki (h-NTPDase1): 0.04 µM
- IC50 (h-NTPDase1): 0.29 ± 0.02 µM

SMILES: Cc1cccc(C)c1NC(=S)N/N=C1\C(=O)Nc2ccccc21 [8i, (Z)-N-(2,6-dimethylphenyl)-2-(2-oxoindolin-3-ylidene)hydrazine-1-carbothioamide]
- Ki (m-NTPDase2): 0.04 µM
- IC50 (m-NTPDase2): 0.15 ± 0.01 µM
- Ki (h-NTPDase1): 0.24 µM
- IC50 (h-NTPDase1): 1.63 ± 0.15 µM
- inhibition at 100 µM (h-NTPDase8): 17%

SMILES: O=C1Nc2ccccc2/C1=N/NC(=S)Nc1ccc(Cl)cc1 [8c, (Z)-N-(4-chlorophenyl)-2-(2-oxoindolin-3-ylidene)hydrazine-1-carbothioamide]
- inhibition at 100 µM (m-NTPDase2): 36%
- Ki (h-NTPDase1): 0.03 µM
- IC50 (h-NTPDase1): 0.23 ± 0.01 µM
- Ki (h-NTPDase8): 0.11 µM
- IC50 (h-NTPDase8): 0.24 ± 0.02 µM

SMILES: O=C1Nc2ccccc2/C1=N/NC(=S)NCc1ccccc1 [8f, (Z)-N-benzyl-2-(2-oxoindolin-3-ylidene)hydrazine-1-carbothioamide]
- inhibition at 100 µM (m-NTPDase2): 34%
- Ki (h-NTPDase1): 0.03 µM
- IC50 (h-NTPDase1): 0.24 ± 0.01 µM
- inhibition at 100 µM (h-NTPDase8): < 50%
